Literature values as cited in patent US11957779B2, “Agent for dyeing keratinous material, containing aminosilicone, pigment and polysaccharide” (Henkel AG & Co. KGaA, priority 2019, dated 2024).

What was measured:
[1] = 25° C.
[2] = 5% solution in water

SMILES | solubility in water [1] | also measured
CCN(Cc1cccc(S(=O)(=O)[O-])c1)c1ccc(C(=C2C=CC(=[N+](CC)Cc3cccc(S(=O)(=O)[O-])c3)C=C2)c2ccccc2S(=O)(=O)[O-])cc1.[Na+].[Na+] [Acid Blue 9] | more than 20 wt. % | –
O=S(=O)([O-])c1ccc(N=Nc2c(O)ccc3ccccc23)cc1.[Na+] [Acid Orange 7, sodium salt of 4-[(2-hydroxy-1-naphthyl)azo]benzene sulphonate] | more than 7 g/L | –
Nc1cc(S(=O)(=O)[O-])cc2cc(S(=O)(=O)[O-])c(N=Nc3ccccc3)c(O)c12.[Na+].[Na+] [Acid Red 33, diantrium salt of 5-amino-4-hydroxy-3-(phenylazo)-naphthalene-2,7-disulphonate] | 2.5 g/L | –
O=C([O-])c1c(Cl)c(Cl)c(Cl)c(Cl)c1-c1c2c(Br)cc(=O)c(Br)c-2oc2c(Br)c(O)cc(Br)c12.O=C([O-])c1c(Cl)c(Cl)c(Cl)c(Cl)c1-c1c2c(Br)cc(=O)c(Br)c-2oc2c(Br)c(O)cc(Br)c12.[Na+].[Na+] [Acid Red 92, disodium salt of 3,4,5,6-tetrachloro-2-(1,4,5,8-tetrabromo-6-hydroxy-3-oxoxanthen-9-yl)benzoic acid] | greater than 10 g/L | –
O=C([O-])C1=NN(c2ccc(S(=O)(=O)[O-])cc2)C(=O)C1N=Nc1ccc(S(=O)(=O)[O-])cc1.[Na+].[Na+].[Na+] (stereo not drawn) [Acid Yellow 23, trisodium salt of 4,5-dihydro-5-oxo-1-(4-sulfophenyl)-4-((4-sulfophenyl)azo)-1H-pyrazole-3-carboxylic acid] | – | solubility in water (in words) [1]: highly soluble
O=P([O-])(O)O.[K+] [Potassium dihydrogen phosphate] | – | pH value [2]: about 4.4
